Laboratory results published in US20250059144A1, “Tellurium-containing compounds and the use of treating bacterial infections thereof” (Kaohsiung Medical University, priority 2021, published 2025).
Values joined by “and” are separate entries in the source; they are usually repeats but may differ in a detail not shown here. Identical values can stand only once. Like-named read-outs stand apart in the source and are kept apart here.

Legend:
[1] = system: Klebsiella pneumoniae ATCC BAA-1705; test: MIC in cation-adjusted Muller-Hinton broth; assay type: cell-based
Source text: (§1) Compound (c) was therefore used for further evaluation of anti-bacterial activities to carbapenem resistant bacteria involving Escherichia coli, Klebsiella pneumoniae, Pseudomonas aeruginosa, and Acinetobacter baumannii in the following experiments.

[2] = system: Klebsiella pneumoniae strain CRE-723; test: MIC in cation-adjusted Muller-Hinton broth; assay type: cell-based
Source text: as §1

[3] = system: Pseudomonas aeruginosa strain PA13; test: MIC in cation-adjusted Muller-Hinton broth; assay type: cell-based
Source text: as §1

Escherichia coli CRE-415 = test: MIC in cation-adjusted Muller-Hinton broth; assay type: cell-based
Source text: as §1

[4] = system: Acinetobacter baumannii strain AB03; test: MIC in cation-adjusted Muller-Hinton broth; assay type: cell-based
Source text: as §1

[5] = Acute toxicity test (survival, LD50); assay type: in vivo; conditions: male mice; for survival rate: one week observation
Experimental: In terms of acute toxicology, the dose-response relationship is represented in S-shaped curve. It is not easy to obtain the LD50 value directly through the experiment. Therefore, the animal survival rate of 20˜80% must be used as the benchmark, and the LD50 value is obtained by calculating the dose and survival rate of the area. Six male mice of each group were injected with 15, 20, and 25 mg/kg of compound (c) by intraperitoneal injection. After a week of behavior and physiological observations, the survival rate was recorded and applied for linear regression.

[6] = Histopathological lesion evaluation and severity score of surviving mice; assay type: in vivo
Experimental: In the experiment, 2 mice in the 20 and 25 mg/kg groups were randomly selected for euthanasia, the tissues involving heart, liver, spleen, lung, kidney, stomach, small intestine, large intestine, pancreatic were sliced and stained and were used for histopathological lesion evaluation and severity score by a professional pathology veterinarian (Disease Animal Special Certificate No. 0040).
Extremely light to slight monocyte infiltration in the heart was a lesion that were occasionally observed by a normal mouse might be irrelevant to experimental disposal, and a small number of monocyte infiltration cells could be observed in the portal vein area of the liver of most mice. Mild to moderate hepatocyte glycogen deposition were found in all mice, and significant swollen occurred in their liver cells, this was a common background lesions in normal mice in the case of sacrifice without sufficient fasting. It was worth noting that slight necrosis of the liver was only seen in No. 25-2. Increased mitosis in liver cell is one of the common regeneration or hyperplasia reactions for liver tissue damage. Compared with normal liver tissue, damaged liver tissue may have more mitosis cells, but it is also occasionally seen in normal mice. The mice of Nos. 20-1 and 25-2 had extremely slight to mild hepatocytes increased mitosis. It might be irrelevant to experimental disposal since the degree of increased mitosis was extremely mild to mild and was not related to the dose. Extramedullary hematopoiesis (EMH) are common lesions of mice liver tissue, it can be considered as background lesion if the degree is extremely mild. […] Besides, EMH is also common lesions occurred in spleen of mice and may exist in normal mice, the mild degree of EMH may be therefore considered as background lesions. Extremely mild to mild EMH lesions were found in spleen tissues of all mice. It could be found in the number 25-2 mouse spleen that its lymphoid follicle had multiple extremely mild apoptosis lesions, but no tissue necrosis was found. […] Chronic progressive nephropathy (CPN) involving lesions of tubule basophilia, basement membrane thickening, mononuclear inflammatory cells infiltration, glomerulosclerosis, or tubule dilatation is the most common kidney lesions in the kidney tissues of mice. The cause of CPN is unknown, it can be found in normal mice, and the incidence is increased depend on ages, male mice have a higher incidence than female mice. Therefore, it is generally not recommended to score CPN lesion separately. CPN may also occur after drug administration, it should be considered as treatment-related lesions if the severities have a significant difference in group differences. In this study, there were moderate or higher CPN lesions in each mouse kidney tissue, except for mouse of No. 25-2. However, the difference was not related to the dose and might not be related to the experimental disposal.

[7] = system: Acinetobacter baumannii strain AB03; test: Carbapenem-resistant Acinetobacter baumannii sepsis infection model; assay type: in vivo; conditions: 40 mg/kg/day, 3 days treatment, A. baumannii AB03 septic mice
Experimental: For establishing the carbapenem-resistant Acinetobacter baumannii sepsis infection model, 12 mice were separated in each group and were infected with the standard Acinetobacter baumannii strain AB03 with lethal dosage by intraperitoneal injection. The compound (c) was given to test groups at the dosage of 0.33, 1.67 and 3.33 mg/kg/day for 3 days treatment, respectively. The clinical standard therapy colistin methanesulfonate (CMS) (40 mg/kg/day) was selected as compared drug. 1×PBS was given as placebo group. Mice survival rate were observed four times a day and were recorded as the curve.

[8] = system: carbapenem-resistant Pseudomonas aeruginosa isolated from infected blood (n = 29); test: MICs in carbapenem-resistant isolate panel; assay type: cell-based; conditions: P. aeruginosa (n = 29)
Source text: as §1
(§2) 34 carbapenem-resistant Klebsiella pneumoniae, 34 carbapenem-resistant Escherichia coli, 29 carbapenem-resistant Pseudomonas aeruginosa isolated from infected blood, and 28 carbapenem-resistant Acinetobacter baumannii isolated from infected blood were selected to evaluate the anti-bacterial activities of compounds (c).

[9] = system: carbapenem-resistant Escherichia coli (n = 34); test: MICs in carbapenem-resistant isolate panel; assay type: cell-based; conditions: E. coli (n = 34)
Source text: as §1, §2

[10] = system: carbapenem-resistant Acinetobacter baumannii isolated from infected blood (n = 28); test: MICs in carbapenem-resistant isolate panel; assay type: cell-based; conditions: A. baumannii (n = 28)
Source text: as §1, §2

[11] = system: carbapenem-resistant Klebsiella pneumoniae (n = 34); test: MICs in carbapenem-resistant isolate panel; assay type: cell-based; conditions: K. pneumoniae (n = 34)
Source text: as §1, §2

[12] = ATCCBAA1705, read-out: MIC K. pneumoniae ATCC BAA-1705
[13] = CRE723, read-out: MIC K. pneumoniae strain CRE-723
[14] = PA13, read-out: MIC P. aeruginosa strain PA13
[15] = CRE415, read-out: MIC E. coli CRE-415
[16] = AB03, read-out: MIC A. baumannii strain AB03
[17] = 20 mg/kg, mice 20-1, 20-2, day 7
[18] = 25 mg/kg, mice 25-1, 25-2, day 7

Work on `Cl[TeH]1(Cl)(Cl)[n+]2cccc3ccc4ccc[n+]1c4c32` [compound (f)] yielded an MIC [1, 12] of 8 µg/mL, an MIC [2, 13] of 4 µg/mL and an MIC [3, 14] of 2 µg/mL. The MIC (Escherichia coli CRE-415; [15]) was 8 µg/mL and the MIC [4, 16] was 1 µg/mL.
Work on `[2H]C1([2H])O[TeH](Cl)(Cl)(Cl)OC1([2H])[2H]` [compound (d)] yielded an MIC ([1]; ATCCBAA1705, CAMHB, read-out: MIC K. pneumoniae ATCC BAA-1705) of 8 µg/mL, an MIC ([2]; CRE723, CAMHB, read-out: MIC K. pneumoniae strain CRE-723) of 8 µg/mL and an MIC ([3]; PA13, CAMHB, read-out: MIC P. aeruginosa strain PA13) of 1 µg/mL. The MIC (Escherichia coli CRE-415; CRE415, CAMHB, read-out: MIC E. coli CRE-415) was 1 µg/mL and the MIC ([4]; AB03, CAMHB, read-out: MIC A. baumannii strain AB03) was 1 µg/mL.
For `CN1CCN(C)[TeH]1(Cl)(Cl)Cl` [compound (c)], the survival rate ([5]; 15 mg/kg intraperitoneal) was 100%, the survival rate ([5]; 20 mg/kg intraperitoneal) was 83.3% and the survival rate ([5]; 25 mg/kg intraperitoneal) was 33.3%. The LD50 ([5]; intraperitoneal, linear regression of 20 and 25 mg/kg survival) was 23.3 mg/kg, the “Heart Mononuclear cells infiltration severity score” value [6, 17] was 0 and the “Heart Necrosis/ degeneration severity score” value [6, 17] was 0. For the same compound, the “Kidney Nephropathy, chronic progressive (CPN) severity score” value [6, 17] was 3 and 4, the “Large intestine Erosion/ ulcer severity score” value [6, 17] was 0 and the “Large intestine Mononuclear cells infiltration severity score” value [6, 17] was 0. For the same compound, the “Liver Extramedullary hematopoiesis, EMH severity score” value [6, 17] was 1 and 2, the “Liver Glycogen deposition severity score” value [6, 17] was 3 and 4 and the “Liver Increased mitosis severity score” value [6, 17] was 0. The “Liver Necrosis/ degeneration severity score” value [6, 17] was 0, the “Lung Mononuclear cells infiltration severity score” value [6, 17] was 0 and the “Lung Necrosis/ degeneration severity score” value [6, 17] was 0. For the same compound, the “Pancreas Mononuclear cells infiltration severity score” value [6, 17] was 0, the “Pancreas Necrosis severity score” value [6, 17] was 0 and the “Small intestine Erosion/ ulcer severity score” value [6, 17] was 0. The “Small intestine Mononuclear cells infiltration severity score” value [6, 17] was 0, the “Spleen Apoptosis severity score” value [6, 17] was 0 and the “Spleen Extramedullary hematopoiesis, EMH severity score” value [6, 17] was 2. The “Spleen Necrosis severity score” value [6, 17] was 0, the “Stomach Erosion/ ulcer severity score” value [6, 17] was 0 and the “Stomach Mononuclear cells infiltration severity score” value [6, 17] was 0. For the same compound, the “Heart Necrosis/ degeneration severity score” value [6, 18] was 0, the “Large intestine Erosion/ ulcer severity score” value [6, 18] was 0 and the “Large intestine Mononuclear cells infiltration severity score” value [6, 18] was 0. The “Liver Increased mitosis severity score” value [6, 18] was 0, the “Liver Mononuclear cells infiltration severity score” value [6, 18] was 1 and the “Lung Mononuclear cells infiltration severity score” value [6, 18] was 0. For the same compound, the “Lung Necrosis/ degeneration severity score” value [6, 18] was 0, the “Pancreas Mononuclear cells infiltration severity score” value [6, 18] was 0 and the “Pancreas Necrosis severity score” value [6, 18] was 0. The “Small intestine Erosion/ ulcer severity score” value [6, 18] was 0, the “Small intestine Mononuclear cells infiltration severity score” value [6, 18] was 0 and the “Spleen Extramedullary hematopoiesis, EMH severity score” value [6, 18] was 2 and 1. The “Spleen Necrosis severity score” value [6, 18] was 0, the “Stomach Erosion/ ulcer severity score” value [6, 18] was 0 and the “Stomach Mononuclear cells infiltration severity score” value [6, 18] was 0.
Work on `Cc1cc[n+]2c(c1)-c1cc(C)cc[n+]1[TeH]2(Cl)(Cl)Cl` [compound (g)] yielded an MIC [1, 12] of 16 µg/mL, an MIC [2, 13] of 16 µg/mL and an MIC [3, 14] of 4 µg/mL. It also gave an MIC (Escherichia coli CRE-415; [15]) of 16 µg/mL and an MIC [4, 16] of 4 µg/mL.
Work on colistin methanesulfonate [CMS] yielded a survival rate [7] of 16.7%.
`Cl[TeH]1(Cl)(Cl)[n+]2ccccc2SSc2cccc[n+]21` [compound (e)] gave an MIC [1, 12] of 16 µg/mL, an MIC [2, 13] of 32 µg/mL and an MIC [3, 14] of 16 µg/mL. The MIC (Escherichia coli CRE-415; [15]) was 4 µg/mL and the MIC [4, 16] was 4 µg/mL.
Compound `Cl[Te]1(Cl)Nc2ccccc2N1` [compound (a)] has an MIC [1, 12] of 4 µg/mL, an MIC [2, 13] of 2 µg/mL and an MIC [3, 14] of 2 µg/mL. For the same compound, the MIC (Escherichia coli CRE-415; [15]) was 1 µg/mL and the MIC [4, 16] was 1 µg/mL.
With `Cl[TeH]1(Cl)(Cl)OCCO1` [AS101] the MIC50 [8] was 64 µg/mL, the MIC90 [8] was greater than 64 µg/mL and the MIC range [9] was 0.5~32 μg/mL. For the same compound, the MIC50 ([9]; Escherichia coli) was 4 µg/mL, the MIC90 ([9]; Escherichia coli) was 8 µg/mL and the MIC range [10] was <0.5~8 μg/mL. The MIC50 ([10]; Acinetobacter baumannii) was 2 µg/mL, the MIC90 ([10]; Acinetobacter baumannii) was 4 µg/mL and the MIC range [11] was <0.5~16 μg/mL. For the same compound, the MIC50 ([11]; Klebsiella pneumoniae) was 2 µg/mL and the MIC90 ([11]; Klebsiella pneumoniae) was 16 µg/mL.
In the case of `Cc1ccc2[n+](c1)[TeH](Cl)(Cl)(Cl)[n+]1cc(C)ccc1-2` [compound (h)], the MIC [1, 12] is reported as 8 µg/mL, the MIC [2, 13] is reported as 16 µg/mL and the MIC [3, 14] is reported as 8 µg/mL. It also gave an MIC (Escherichia coli CRE-415; [15]) of 4 µg/mL and an MIC [4, 16] of 4 µg/mL.
With `Cl[TeH]1(Cl)(Cl)[n+]2ccccc2-c2cccc[n+]21` [compound (b)] the MIC [1, 12] was 16 µg/mL, the MIC [2, 13] was 16 µg/mL and the MIC [3, 14] was 4 µg/mL. It also gave an MIC (Escherichia coli CRE-415; [15]) of 4 µg/mL and an MIC [4, 16] of 2 µg/mL.
